One experiment has as its target T1, RIPK1 enzyme (Homo sapiens, UniProt Q13546).
T1 construct: purchased Eurofins 16-022
T1 sequence (Q13546 1-671): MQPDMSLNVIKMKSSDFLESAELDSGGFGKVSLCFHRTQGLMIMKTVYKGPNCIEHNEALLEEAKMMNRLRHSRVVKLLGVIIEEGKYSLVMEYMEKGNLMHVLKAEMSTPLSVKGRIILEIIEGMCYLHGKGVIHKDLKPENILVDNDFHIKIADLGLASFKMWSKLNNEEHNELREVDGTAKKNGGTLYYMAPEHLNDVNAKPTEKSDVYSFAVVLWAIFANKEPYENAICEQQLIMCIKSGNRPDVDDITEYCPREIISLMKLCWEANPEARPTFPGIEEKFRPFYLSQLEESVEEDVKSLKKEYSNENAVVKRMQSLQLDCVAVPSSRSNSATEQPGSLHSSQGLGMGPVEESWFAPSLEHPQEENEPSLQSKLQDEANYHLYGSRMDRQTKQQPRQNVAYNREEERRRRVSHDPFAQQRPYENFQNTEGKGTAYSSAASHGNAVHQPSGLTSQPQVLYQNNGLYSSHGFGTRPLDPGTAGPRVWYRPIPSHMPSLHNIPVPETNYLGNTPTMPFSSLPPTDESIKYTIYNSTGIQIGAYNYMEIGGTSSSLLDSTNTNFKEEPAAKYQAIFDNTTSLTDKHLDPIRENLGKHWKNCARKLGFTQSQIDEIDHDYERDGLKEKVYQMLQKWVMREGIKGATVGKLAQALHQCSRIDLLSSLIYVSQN
Description: Inhibitory activity of the compounds against RIPK1 enzyme (P33-ATP, MBP substrate). It is filed as biochemical. The conditions noted are these: 36 nM RIPK1, substrate MBP, 10 mM magnesium ion, P33-labeled ATP, 2 h room temperature; read-out: RIPK1 enzyme inhibitory activety IC50. The procedure: The compound to be tested was dissolved in DMSO, and diluted in 3.16 folds with DMSO to a series of gradient concentrations. Then, the solution was diluted with MOPS buffer pH 7.0 to the final concentration. The resultant working solution was mixed with 36 nM RIPK1 (final concentration) and the substrate MBP homogeneously. Thereafter, 10 mM magnesium ion and P^33 isotopically labeled ATP were added for the reaction. After the reaction was carried out at room temperature for 2 h, phosphoric acid was added to terminate the reaction. The final reaction system was tested using a liquid scintillation counter after treatment. The […] for the tested result and a positive control group were converted to activity percentage. The activity percentage was plotted against the final concentration of respective compound using a 4-parameter fitting to obtain the inhibitory IC50 of the compound against RIPK1 enzyme.

The subject of a further experiment is U937 cells. Put plainly: Inhibitory activity against programmed necroptosis of U937 cells induced by TNF-α and Q-VD-Oph (CellTiter-Glo). It is filed as cell-based. The conditions noted are these: Celltiter-Glo survival rate. The method, then: The U937 cell strain which was used in the following Testing Examples was derived from ATCC, No.: CRL-1593.2, batch No.: 63479999, culture medium: RPMI-1640+10% FBS.
The compound to be tested was dissolved in DMSO, and diluted with DMSO to a series of gradient concentrations. The U937 cells were inoculated in a 384-well plate at 5000/well. The compound at respective concentration was added to each of the wells, and was mixed with the cells homogeneously. Human TNF-α and Q-VD-Oph were added simultaneously to induce programmed necroptosis of the cells. The cells were placed in the incubator at 37° C. and 5% CO2 for further culture of 48 h. Celltiter-Glo reagent was used for detection. After adequate pyrolysis reaction, the chemiluminescence readout value was recorded by a microplate reader. The survival rate was calculated from the detection results using the equation as follows: SR (%)=(RLU compound−RLU blank)/(RLU high control−RLU blank)×100%. The survival rate was plotted against the final concentration of respective compound using a 4-parameter fitting to calculate the inhibitory C50 of the compound against programmed necroptosis of cells induced by TNF-α.
For orientation: Cellular ATP, detected with luciferase, serves as a proxy for viable cell number.

Where [1] appears, read: human TNF-α + Q-VD-Oph induced necroptosis, 48 h.

Our source for the IC50 values is patent US20220235032A1 (GENFLEET THERAPEUTICS (SHANGHAI) INC., priority 2019, published 2022).

As a reminder, the IC50 is the concentration that inhibits the measured activity by half. `N#Cc1cc(N2CC3CC(C(=O)N4N=CCC4c4ccccc4)CC3C2)ncn1` (single isomer, unassigned) [Compound Z-9-1]: the half-maximal inhibitory concentration (IC50) was 29 nM on RIPK1 enzyme and 157 nM in the experiment with U937 cells (Homo sapiens, U-937, 48 h).
As to `N#Cc1cc(N2CCC(C(=O)N3N=CCC3c3cc(F)cc(F)c3)C3(CC3)C2)ncn1` (single isomer, unassigned) [Compound Z-25-2], the concentration for half-maximal inhibition (IC50) on RIPK1 enzyme turned out to be 42 nM; in the experiment on U937 cells (Homo sapiens, U-937, 48 h), 1 nM.
For the compound `N#Cc1cc(N2CC[C@H](C(=O)N3N=CC[C@H]3c3cncc(F)c3)C3(CC3)C2)ncn1` (single isomer, unassigned) [Compound Z-48-d], the IC50 worked out at 50 nM on RIPK1 enzyme and 7 nM in the experiment with U937 cells (Homo sapiens, U-937, 48 h).
Taken in the same sequence, the figures for `NC(=O)c1cc(N2CC3CC(C(=O)N4N=CCC4c4ccccc4)CC3C2)ncn1` (centres unmarked) [Compound Z-10] were 95 nM and 153 nM.
With `N#Cc1cc(N2CC3CC(C(=O)N4N=CCC4c4cc(F)cc(F)c4)CC3C2)ncn1` (centres unmarked) [Compound Z-11, 6-(5-(5-(3,5-difluorophenyl)-4,5-dihydro-1H-pyrazole-1-carbonyl)hexahydrocyclopenta[C]pyrrol-2(1H)-yl)pyrimidine-4-carbonitrile], the IC50 at RIPK1 enzyme worked out at 89 nM; in the experiment on U937 cells (Homo sapiens, U-937, 48 h), 138 nM.
As for `COc1cc(N2CC3CC(C(=O)N4N=CCC4c4ccccc4)CC3C2)ncn1` (centres unmarked) [Compound Z-12, (2-(6-methoxypyrimidin-4-yl)octahydrocyclopenta[c]pyrrol-5-yl)(5-phenyl-4,5-dihydro-1H-pyrazol-1-yl) ketone], the 50% inhibitory concentration (IC50) on RIPK1 enzyme was 123 nM.
`NC(=O)c1ccnc(N2CC3CC(C(=O)N4N=CCC4c4cc(F)cc(F)c4)CC3C2)n1` (centres unmarked) [Compound Z-18, 2-(5-(5-(3,5-difluorophenyl)-4,5-dihydro-1H-pyrazole-1-carbonyl)hexahydrocyclopenta [c]pyrrol-2(1H)-yl)pyrimidine-4-carboxamide] displayed an IC50 in the experiment with U937 cells (Homo sapiens, U-937, 48 h) of 94 nM.
For `NC(=O)c1cc(N2CC3CC(C(=O)N4N=CCC4c4cc(F)ccc4F)CC3C2)ncn1` (centres unmarked) [Compound Z-20, 6-(5-(5-(2,5-difluorophenyl)-4,5-dihydro-1H-pyrazole-1-carbonyl)hexahydrocyclopenta[c]pyrrol-2(1H)-yl)pyrimidine-4-carboxamide], the IC50 in the experiment on U937 cells (Homo sapiens, U-937, 48 h) was 272 nM.
Still for that read-out and setting: as for `NC(=O)c1ccnc(N2CC3CC(C(=O)N4N=CCC4c4cc(F)ccc4F)CC3C2)n1` (centres unmarked) [Compound Z-22, 2-(5-(5-(2,5-difluorophenyl)-4,5-dihydro-1H-pyrazole-1-carbonyl)hexahydrocyclopenta [c]pyrrol-2(1H)-yl)pyrimidine-4-carboxamide], the figure is 70 nM; as for `Nc1nc(N2CC3CC(C(=O)N4N=CCC4c4cc(F)cc(F)c4)CC3C2)ncc1F` (centres unmarked) [Compound Z-23, (2-(4-amino-5-fluoropyrimidin-2-yl)octahydrocyclopenta[c]pyrrol-5-yl)(5-(3,5-difluorophenyl)-4,5-dihydro-1H-pyrazol-1-yl) ketone], 52 nM.
With `N#Cc1ccnc(N2CC3CC(C(=O)N4N=CCC4c4cc(F)ccc4F)CC3C2)n1` (centres unmarked) [Compound Z-24, 2-(5-(5-(2,5-difluorophenyl)-4,5-dihydro-1H-pyrazole-1-carbonyl)hexahydrocyclopenta[c]pyrrol-2(1H)-yl)pyrimidine-4-carbonitrile], in the experiment with U937 cells (Homo sapiens, U-937, 48 h), the half-inhibitory concentration (IC50) amounted to 181 nM.
With `Nc1nc(N2CC3CC(C(=O)N4N=CCC4c4cncc(F)c4)CC3C2)ncc1F` (centres unmarked) [Compound Z-30, (2-(4-amino-5-fluoropyrimidin-2-yl)octahydrocyclopenta[c]pyrrol-5-yl)(5-(5-fluoropyridin-3-yl)-4,5-dihydro-1H-pyrazol-1-yl) ketone], the IC50 in the experiment with U937 cells (Homo sapiens, U-937, 48 h) was determined as 449 nM.
As for `N#Cc1ccnc(N2CC3CC(C(=O)N4N=CCC4c4cncc(F)c4)CC3C2)n1` (centres unmarked) [Compound Z-31, 2-(5-(5-(5-fluoropyridin-3-yl)-4,5-dihydro-1H-pyrazole-1-carbonyl)hexahydrocyclopenta[c]pyrrol-2(1H)-yl)pyrimidine-4-carbonitrile], the IC50 in the experiment with U937 cells (Homo sapiens, U-937, 48 h) came to 408 nM.
With `N#Cc1ccnc(N2CC3CC(C(=O)N4N=CCC4c4cc(F)cc(F)c4)CC3C2)n1` (centres unmarked) [Compound Z-32, 2-(5-(5-(3,5-difluorophenyl)-4,5-dihydro-1H-pyrazole-1-carbonyl)hexahydrocyclopenta [c]pyrrol-2(1H)-yl)pyrimidine-4-carbonitrile], in the experiment on U937 cells (Homo sapiens, U-937, 48 h), the IC50 was found to be 60 nM.
For `Cc1nnc(N2CCC(C(=O)N3N=CCC3c3cc(F)cc(F)c3)C3(CC3)C2)o1` (centres unmarked) [Compound Z-61, (5-(3,5-difluorophenyl)-4,5-dihydro-1H-pyrazol-1-yl)(5-(5-methyl-1,3,4-oxadizol-2-yl)-5-aza-spiro[2.5]octane-8-yl) ketone], the half-maximal inhibitory concentration (IC50) with U937 cells (setting [1]) is 53 nM.
As to `N#Cc1cc(N2CCC(C(=O)N3N=CCC3c3cc(F)cc(F)c3)CC23CC3)ncn1` (centres unmarked) [Compound Z-62, 6-(7-(5-(3,5-difluorophenyl)-4,5-dihydro-1H-pyrazole-1-carbonyl)-4-aza-spiro[2.5]oct-4-yl)pyrimidine-4-carbonitrile], the IC50 with U937 cells (Homo sapiens, U-937, 48 h) was determined as 7 nM.
In the case of `Cc1nnc(N2CCC(C(=O)N3N=CCC3c3cc(F)cc(F)c3)C3(CC3)C2)o1` (centres unmarked) [Compound Z-63-2, (5-(3,5-difluorophenyl)-4,5-dihydro-1H-pyrazol-1-yl)(5-(5-methyl-1,3,4-oxadizol-2-yl)-5-aza-spiro[2.5]octane-8-yl) ketone], the 50% inhibitory concentration (IC50) in the experiment on U937 cells (setting [1]) was found to be 21 nM.
For `Cc1nnc(N2CCC(C(=O)N3N=CCC3c3cc(F)cc(F)c3)C3(CC3)C2)o1` (centres unmarked) [Compound Z-63-a, (5-(3,5-difluorophenyl)-4,5-dihydro-1H-pyrazol-1-yl)(5-(5-methyl-1,3,4-oxadizol-2-yl)-5-aza-spiro[2.5]octane-8-yl) ketone], the concentration for half-maximal inhibition (IC50) in the experiment with U937 cells (setting [1]) came out at 32 nM.
In the case of `NC(=O)c1cc(N2CCC(C(=O)N3N=CCC3c3cc(F)cc(F)c3)CC23CC3)ncn1` (centres unmarked) [Compound Z-64-1, 6-(7-(5-(3,5-difluorophenyl)-4,5-dihydro-1H-pyrazole-1-carbonyl)-4-aza-spiro[2.5]oct-4-yl)pyrimidine-4-carboxamide], in the experiment with U937 cells (setting [1]), the IC50 turned out to be 6 nM.
In turn, `N#Cc1cc(N2CCC(C(=O)N3N=CCC3c3cncc(F)c3)CC23CC3)ncn1` (centres unmarked) [Compound Z-65, 6-(7-(5-(5-fluoropyridin-3-yl)-4,5-dihydro-1H-pyrazole-1-carbonyl)-4-aza-spiro[2.5]oct-4-yl)pyrimidine-4-carbonitrile] showed an IC50 in the experiment with U937 cells (Homo sapiens, U-937, 48 h) of 52 nM.
Turning to `NC(=O)c1cc(N2CCC(C(=O)N3N=CCC3c3cc(F)cc(F)c3)CC23CC3)ncn1` (centres unmarked) [Compound Z-66, 6-(7-(5-(3,5-difluorophenyl)-4,5-dihydro-1H-pyrazole-1-carbonyl)-4-aza-spiro[2.5]oct-4-yl)pyrimidine-4-carboxamide], the half-inhibitory concentration (IC50) in the experiment on U937 cells (setting [1]) worked out at 20 nM.
Take `NC(=O)c1cc(N2CCC(C(=O)N3N=CCC3c3cncc(F)c3)CC23CC3)ncn1` (centres unmarked) [Compound Z-67, 6-(7-(5-(5-fluoropyridin-3-yl)-4,5-dihydro-1H-pyrazole-1-carbonyl)-4-aza-spiro[2.5]oct-4-yl)pyrimidine-4-carboxamide]: half-maximal inhibition with U937 cells (Homo sapiens, U-937, 48 h) (IC50) required 115 nM.
For the compound `Cc1nnc(N2CCC(C(=O)N3N=CCC3c3cncc(F)c3)C3(CC3)C2)o1` (centres unmarked) [Compound Z-68, (5-(5-fluoropyridin-3-yl)-4,5-dihydro-1H-pyrazol-1-yl)(5-(5-methyl-1,3,4-oxadizol-2-yl)-5-aza-spiro[2.5]oct-8-yl) methanone], the IC50 in the experiment with U937 cells (setting [1]) was determined as 364 nM.
Consider `CNC(=O)c1cc(N2CCC(C(=O)N3N=CCC3c3cc(F)cc(F)c3)CC23CC3)ncn1` (centres unmarked) [Compound Z-70-a, 6-(7-(5-(3,5-difluorophenyl)-4,5-dihydro-11H-pyrazole-1-carbonyl)-4-aza-spiro[2.5]oct-4-yl)-N-methylpyrimidine-4-carboxamide], for which the IC50 with U937 cells (setting [1]) was found to be 21 nM.
